Reference: US20230095912A1, “Composition and Methods for Selective Degradation of Engineered Proteins” (Celgene Corporation, priority 2021, published 2023)
Like-named read-outs stand apart in the source and are kept apart here.

Key:
Type in all cases: cell-based
ePL-tagged GSPT1 = biological target: T1, ePL-tagged GSPT1 (Homo sapiens, UniProt P15170+Q96SW2); test: ePL-tagged substrate degradation in DF15 multiple myeloma cells
T1 construct: expressed in transfected cells
Description: (§1) DF15 multiple myeloma cells stably expressing ePL-tagged Aiolos, Ikaros, or GSPT1, and MDS-L cells stably expressing ePL-tagged CK1a were generated via lentiviral infection with pLOC-ePL-Aiolos (or Ikaros, GSPT1, or CK1a). […] Compounds were dispensed by an acoustic dispenser (ATS acoustic transfer system from EDC Biosystems) into a 384-well plate in a 10-point dose response curve using 3-fold dilutions starting at 10 μM and going down to […]. Then, 25 μL of media (RPMI-1640+10% heat inactivated FBS+25 mM Hepes+1 mM Na pyruvate+1× NEAA+1×Pen Strep Glutamine) containing 5000 of DF15 or MSD-L cells was dispensed per well. Assay plates were incubated at 37° C. with 5% CO2 for 4 hours except 20 hours for GSPT1. After incubation, 25 μL of the InCELL Hunter detection reagent working solution (DiscoverX, catalogue no. 96-0002, Fremont, Calif.) was added to each well and incubated at room temperature for 60 min protected from light. After 60 min, luminescence was read on an Envision or PHERAstar luminescence reader.
(§2) To determine the EC50 value of a compound for the degradation of a given substrate (concentration of compound that achieves half the maximum degradation observed), a four-parameter logistic model (sigmoidal dose—response model) (FIT=(A+{(B−A)/1+[(C/x)D]})) where C is the inflection point (EC50), D is the […], and A and B are the low and high limits of the fit, respectively) was used. All substrate degradation curves were processed and evaluated using ActivityBase (IDBS), a data analysis software package. Ymin is minimum percent protein remaining.

ePL-tagged Ikaros = biological target: T2, ePL-tagged Ikaros (Homo sapiens, UniProt Q13422+Q96SW2); test: as above
T2 construct: expressed in transfected cells
T2 sequence (Q13422 whole entry): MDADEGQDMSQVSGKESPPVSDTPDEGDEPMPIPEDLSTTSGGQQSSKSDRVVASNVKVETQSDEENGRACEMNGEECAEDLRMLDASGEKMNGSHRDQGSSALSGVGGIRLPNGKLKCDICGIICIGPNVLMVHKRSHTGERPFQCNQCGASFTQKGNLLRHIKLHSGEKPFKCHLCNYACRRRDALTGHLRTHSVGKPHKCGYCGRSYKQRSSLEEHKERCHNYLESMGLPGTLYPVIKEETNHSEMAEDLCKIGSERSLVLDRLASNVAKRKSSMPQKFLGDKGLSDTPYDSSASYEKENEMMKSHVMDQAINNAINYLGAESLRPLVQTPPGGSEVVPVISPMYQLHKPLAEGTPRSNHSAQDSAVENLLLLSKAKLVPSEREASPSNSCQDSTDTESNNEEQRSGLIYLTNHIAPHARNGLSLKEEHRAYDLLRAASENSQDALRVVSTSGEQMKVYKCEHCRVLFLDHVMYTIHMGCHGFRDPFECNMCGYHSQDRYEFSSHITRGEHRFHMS
T2 sequence (Q96SW2 whole entry): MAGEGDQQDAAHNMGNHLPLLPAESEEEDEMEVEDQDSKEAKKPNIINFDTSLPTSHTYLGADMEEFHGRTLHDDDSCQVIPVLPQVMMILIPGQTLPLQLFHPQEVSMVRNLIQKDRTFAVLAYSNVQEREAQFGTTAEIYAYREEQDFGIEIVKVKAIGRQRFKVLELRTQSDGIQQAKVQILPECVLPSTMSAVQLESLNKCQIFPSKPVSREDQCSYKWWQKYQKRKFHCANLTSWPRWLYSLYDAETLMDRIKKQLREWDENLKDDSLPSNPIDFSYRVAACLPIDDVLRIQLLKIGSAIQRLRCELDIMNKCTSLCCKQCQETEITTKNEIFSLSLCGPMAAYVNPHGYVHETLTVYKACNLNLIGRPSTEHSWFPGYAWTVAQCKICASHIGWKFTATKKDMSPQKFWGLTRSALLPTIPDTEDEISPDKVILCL
T2 sequence (Q16531 whole entry partner): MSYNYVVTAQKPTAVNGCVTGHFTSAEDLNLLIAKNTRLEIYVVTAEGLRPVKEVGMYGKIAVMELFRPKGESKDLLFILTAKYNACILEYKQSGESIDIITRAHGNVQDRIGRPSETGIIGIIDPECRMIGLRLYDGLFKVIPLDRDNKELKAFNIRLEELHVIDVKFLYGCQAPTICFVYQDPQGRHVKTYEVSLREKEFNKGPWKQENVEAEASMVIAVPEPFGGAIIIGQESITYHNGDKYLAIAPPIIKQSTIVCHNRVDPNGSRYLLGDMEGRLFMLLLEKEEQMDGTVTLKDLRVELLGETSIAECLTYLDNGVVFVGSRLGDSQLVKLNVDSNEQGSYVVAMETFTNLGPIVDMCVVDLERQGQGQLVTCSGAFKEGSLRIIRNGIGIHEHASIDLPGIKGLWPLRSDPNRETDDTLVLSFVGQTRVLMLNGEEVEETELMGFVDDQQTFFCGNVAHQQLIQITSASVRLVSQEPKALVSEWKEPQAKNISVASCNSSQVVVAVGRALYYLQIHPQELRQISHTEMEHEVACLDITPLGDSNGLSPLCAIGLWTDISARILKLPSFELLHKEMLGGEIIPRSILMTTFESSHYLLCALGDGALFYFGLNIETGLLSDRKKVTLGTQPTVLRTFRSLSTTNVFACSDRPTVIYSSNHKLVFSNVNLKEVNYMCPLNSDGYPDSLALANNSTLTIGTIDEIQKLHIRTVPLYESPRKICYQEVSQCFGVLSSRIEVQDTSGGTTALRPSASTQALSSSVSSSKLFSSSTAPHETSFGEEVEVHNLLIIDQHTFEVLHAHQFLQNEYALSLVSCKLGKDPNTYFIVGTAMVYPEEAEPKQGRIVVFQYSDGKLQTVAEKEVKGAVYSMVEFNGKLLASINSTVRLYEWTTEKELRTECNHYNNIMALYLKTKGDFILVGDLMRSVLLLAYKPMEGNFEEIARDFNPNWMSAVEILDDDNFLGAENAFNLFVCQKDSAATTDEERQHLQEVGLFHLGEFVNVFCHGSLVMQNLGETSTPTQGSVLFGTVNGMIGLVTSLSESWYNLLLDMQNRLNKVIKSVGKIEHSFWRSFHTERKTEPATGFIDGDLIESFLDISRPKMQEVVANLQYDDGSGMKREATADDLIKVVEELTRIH
Description: as §1, §2

[1] = biological target: T3, CD19 CARs tagged with IKZF1 ZNF2_ZNF3 Q1F (Homo sapiens, UniProt Q13422, Q146F); test: Small-molecule screen: Q1F degron-tagged CD19 CAR levels in Jurkat cells, flow cytometry
T3 construct: EC50 (Q1F degron); other: Jurkat cells, 18 hours, CAR levels normalized to no drug; Ymin (Q1F degron); Ymin (%); minimum percent protein remaining; Nluc reporter
T3 sequence (Q13422 whole entry Q146F): as the sequence (Q13422 whole entry) above, with Q146F counted along it
Description: A set of potential degron-targeting compounds was screened against the Q1F degron, resulting in a set of potent degron/small-molecule pairs. Lentiviral vectors containing CD19 CARs tagged with IKZF1 ZNF2_ZNF3 Q1F Nluc were transduced into Jurkat cells. The CD19 CAR was similar to the CD19 CAR in Example 2, but comprising the ZNF2_ZNF3 Q1F degron (SEQ ID NO: 19). Transduced cells were treated with a titration of each small molecule or no drug and then incubated at 37° C. for 18 hours. Cells were washed and stained with appropriate staining reagent to measure CAR levels. The cells were incubated at 4° C. in the staining reagents for 20 mins and then washed 3 times before being read on the flow cytometer. CAR levels were normalized to cells that had not been treated with drug. EC50 and Ymin values were calculated using the resulting titration curve. This identified small molecules that potently degraded the Q1F degron-tagged CARs (Table 1).

T1 sequence (P15170 whole entry): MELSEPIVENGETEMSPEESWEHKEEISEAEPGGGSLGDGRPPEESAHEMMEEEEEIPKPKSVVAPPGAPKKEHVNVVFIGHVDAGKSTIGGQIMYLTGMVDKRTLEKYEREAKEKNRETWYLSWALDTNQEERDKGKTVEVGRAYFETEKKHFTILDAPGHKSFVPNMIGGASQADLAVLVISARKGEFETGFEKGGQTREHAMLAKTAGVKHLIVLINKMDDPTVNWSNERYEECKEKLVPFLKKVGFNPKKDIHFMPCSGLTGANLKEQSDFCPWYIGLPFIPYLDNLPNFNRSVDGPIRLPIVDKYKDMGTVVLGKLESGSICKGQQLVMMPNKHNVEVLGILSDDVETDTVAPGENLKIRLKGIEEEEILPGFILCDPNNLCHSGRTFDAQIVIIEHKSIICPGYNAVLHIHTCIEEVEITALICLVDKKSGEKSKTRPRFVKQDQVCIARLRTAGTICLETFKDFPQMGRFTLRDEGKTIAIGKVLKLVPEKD
T1 sequence (Q96SW2 whole entry): as the sequence (Q96SW2 whole entry) above
T1 sequence (Q16531 whole entry partner): as the sequence (Q16531 whole entry partner) above

Question: For Cc1ncccc1N1CCN(Cc2ccc3c(c2)CN(C2CCC(=O)NC2=O)C3=O)CC1 (stereo not drawn) [Compound C, 3-(5-((4-(2-methylpyridin-3-yl)piperazin-1-yl)methyl)-1-oxoisoindolin-2-yl)piperidine-2,6-dione], which “Ymin (%)” value (ePL-tagged GSPT1) is on record?
Answer: 89%

Question: And the DC50 (ePL-tagged GSPT1; GSPT1, DF15 cells, 20 hours, read-out: EC50 (the source's name))?
Answer: > 10000 nM

Question: And the “Ymin (%)” value (ePL-tagged Ikaros)?
Answer: 92%

Question: What about the DC50 (ePL-tagged Ikaros; Ikaros, DF15 cells, 4 hours, read-out: EC50 (the source's name)) of the same molecule?
Answer: > 10000 nM

Question: What about the “Ymin (%)” value ([1]; Degron Q1F (from Table 1), minimum percent protein remaining) of the same molecule?
Answer: 12%

Question: And the DC50 ([1]; Degron Q1F (from Table 1), read-out: EC50 (the source's name))?
Answer: 23 nM

Question: And the DC50 ([1]; Jurkat assay described in Example 5, read-out: EC50 for the Q1F degron)?
Answer: < 25 nM

Question: What about the “Ymin (Q1F degron)” value ([1]; Jurkat cells, 18 hours, CAR levels normalized to no drug) of the same molecule?
Answer: 12%

Question: What about the DC50 ([1]; Jurkat cells, 18 hours, CAR levels normalized to no drug, read-out: EC50 (Q1F degron)) of the same molecule?
Answer: 23 nM
